# Data reported in the NIST ThermoML archive (doi:10.1016/j.fluid.2017.08.016).
# Where “and” joins values, the source holds several entries; their conditions need not be identical. Identical values can stand only once. Numbers after ± are expanded uncertainties.
# Conditions: for mass density: 101.33 kPa, Liquid, Vibrating tube method; for surface tension liquid-gas: Pendant drop shape
SMILES,mass density (303.15 K) [kg/m3],mass density (308.15 K) [kg/m3],mass density (313.15 K),surface tension liquid-gas (313.16 K) [mN/m],mass density (313.16 K) [kg/m3],mass density (318.15 K) [kg/m3],mass density (323.15 K),mass density (328.15 K) [kg/m3],mass density (333.15 K),mass density (338.15 K) [kg/m3],mass density (343.15 K),mass density (348.15 K) [kg/m3],mass density (353.15 K) [kg/m3],surface tension liquid-gas (353.16 K) [mN/m],mass density (353.16 K) [kg/m3],mass density (358.15 K) [kg/m3],mass density (363.15 K),surface tension liquid-gas (303.16 K) [mN/m],mass density (303.16 K) [kg/m3],surface tension liquid-gas (363.16 K) [mN/m],also measured
CCCCC(CC)COC(C)=O (centres undefined) [2-ethylhexyl acetate],863.51 ± 1.7,859.15 ± 1.7,854.77 ± 1.7 kg/m3,24.23 ± 0.64,854.84 ± 0.88,850.39 ± 1.7,846.01 ± 1.7 kg/m3,841.61 ± 1.7,837.2 ± 1.7 kg/m3 and 837.29 ± 0.87 kg/m3,832.78 ± 1.7,828.35 ± 1.7 kg/m3 and 828.44 ± 0.86 kg/m3,823.91 ± 1.7,819.45 ± 1.6,20.22 ± 0.54,819.54 ± 0.85,814.98 ± 1.6,810.49 ± 1.6 kg/m3 and 810.59 ± 0.84 kg/m3,–,–,–,surface tension liquid-gas (303.17 K): 25.15 ± 0.66 mN/m; mass density (303.17 K): 863.56 ± 0.89 kg/m3; surface tension liquid-gas (323.16 K): 23.23 ± 0.62 mN/m; mass density (323.16 K): 846.08 ± 0.87 kg/m3; surface tension liquid-gas (333.15 K): 22.28 ± 0.59 mN/m; surface tension liquid-gas (343.15 K): 21.27 ± 0.57 mN/m; surface tension liquid-gas (363.15 K): 19.26 ± 0.52 mN/m; surface tension liquid-gas (373.15 K): 18.35 ± 0.49 mN/m; mass density (373.15 K): 801.56 ± 0.83 kg/m3; surface tension liquid-gas (383.15 K): 17.44 ± 0.47 mN/m; mass density (383.15 K): 792.46 ± 0.82 kg/m3; surface tension liquid-gas (393.16 K): 16.59 ± 0.45 mN/m; mass density (393.16 K): 783.27 ± 0.82 kg/m3
"COCCOCCOC [2,5,8-trioxanonane]",933.98 ± 1.9,928.95 ± 1.9,923.97 ± 1.9 kg/m3,27.57 ± 0.72,923.61 ± 0.93,918.94 ± 1.8,913.9 ± 1.8 kg/m3,908.84 ± 1.8,903.76 ± 1.8 kg/m3 and 903.38 ± 0.91 kg/m3,898.67 ± 1.8,893.55 ± 1.8 kg/m3 and 893.13 ± 0.9 kg/m3,888.41 ± 1.8,883.24 ± 1.8,22.87 ± 0.6,882.79 ± 0.89,878.04 ± 1.8,872.81 ± 1.8 kg/m3,28.54 ± 0.74,933.65 ± 0.94,–,surface tension liquid-gas (323.17 K): 26.27 ± 0.68 mN/m; mass density (323.17 K): 913.51 ± 0.92 kg/m3; surface tension liquid-gas (333.15 K): 24.98 ± 0.65 mN/m; surface tension liquid-gas (343.15 K): 23.79 ± 0.62 mN/m; surface tension liquid-gas (363.14 K): 21.68 ± 0.57 mN/m; mass density (363.14 K): 872.36 ± 0.88 kg/m3; surface tension liquid-gas (373.14 K): 20.53 ± 0.54 mN/m; mass density (373.14 K): 861.79 ± 0.87 kg/m3; surface tension liquid-gas (383.16 K): 19.43 ± 0.51 mN/m; mass density (383.16 K): 851.06 ± 0.86 kg/m3; surface tension liquid-gas (393.15 K): 18.37 ± 0.49 mN/m; mass density (393.15 K): 840.22 ± 0.85 kg/m3
Cc1ccccc1 [toluene],–,–,–,–,–,–,–,–,–,–,–,–,–,–,–,–,–,27.15 ± 0.42,–,20.37 ± 0.33,surface tension liquid-gas (308.15 K): 26.51 ± 0.42 mN/m; surface tension liquid-gas (313.15 K): 25.98 ± 0.41 mN/m; surface tension liquid-gas (318.13 K): 25.42 ± 0.4 mN/m; surface tension liquid-gas (323.15 K): 24.89 ± 0.39 mN/m; surface tension liquid-gas (328.16 K): 24.34 ± 0.38 mN/m; surface tension liquid-gas (333.14 K): 23.65 ± 0.38 mN/m; surface tension liquid-gas (338.16 K): 23.08 ± 0.37 mN/m; surface tension liquid-gas (343.16 K): 22.55 ± 0.36 mN/m; surface tension liquid-gas (348.16 K): 21.98 ± 0.35 mN/m; surface tension liquid-gas (353.15 K): 21.45 ± 0.34 mN/m; surface tension liquid-gas (358.15 K): 20.92 ± 0.34 mN/m; surface tension liquid-gas (368.14 K): 19.86 ± 0.32 mN/m
CCOC(=O)CCC(=O)OCC [diethyl butanedioate],1029.59 ± 2.1,1024.4 ± 2.1,1019.2 ± 2 kg/m3 and 1019.2 ± 1.1 kg/m3,–,–,1014.01 ± 2,1008.81 ± 2 kg/m3 and 1008.81 ± 1 kg/m3,1003.6 ± 2,998.39 ± 2 kg/m3,993.16 ± 2,987.93 ± 2 kg/m3,982.7 ± 2,977.45 ± 2,25.12 ± 0.66,977.44 ± 1,972.19 ± 2,966.91 ± 1.9 kg/m3,30.62 ± 0.8,1029.57 ± 1.1,24.02 ± 0.64,surface tension liquid-gas (313.15 K): 29.55 ± 0.78 mN/m; surface tension liquid-gas (323.15 K): 28.42 ± 0.75 mN/m; surface tension liquid-gas (333.17 K): 27.41 ± 0.72 mN/m; mass density (333.17 K): 998.37 ± 1 kg/m3; surface tension liquid-gas (343.17 K): 26.33 ± 0.69 mN/m; mass density (343.17 K): 987.91 ± 1 kg/m3; mass density (363.16 K): 966.9 ± 0.99 kg/m3; surface tension liquid-gas (373.14 K): 22.95 ± 0.61 mN/m; mass density (373.14 K): 956.34 ± 0.98 kg/m3; surface tension liquid-gas (383.15 K): 21.96 ± 0.58 mN/m; mass density (383.15 K): 945.69 ± 0.97 kg/m3; surface tension liquid-gas (393.17 K): 21.03 ± 0.56 mN/m; mass density (393.17 K): 934.96 ± 0.96 kg/m3
COCCO [2-methoxyethan-1-ol],956.73 ± 1.9,952.09 ± 1.9,947.42 ± 1.9 kg/m3,–,–,942.72 ± 1.9,937.98 ± 1.9 kg/m3,933.21 ± 1.9,928.39 ± 1.9 kg/m3,923.54 ± 1.9,918.64 ± 1.8 kg/m3,913.69 ± 1.8,908.7 ± 1.8,24.7 ± 0.64,908.26 ± 0.91,903.65 ± 1.8,898.55 ± 1.8 kg/m3,30.06 ± 0.78,956.41 ± 0.96,23.6 ± 0.62,surface tension liquid-gas (313.14 K): 29.01 ± 0.75 mN/m; mass density (313.14 K): 947.1 ± 0.95 kg/m3; surface tension liquid-gas (323.16 K): 27.98 ± 0.72 mN/m; mass density (323.16 K): 937.62 ± 0.94 kg/m3; surface tension liquid-gas (333.14 K): 26.9 ± 0.7 mN/m; mass density (333.14 K): 928.03 ± 0.93 kg/m3; surface tension liquid-gas (343.16 K): 25.88 ± 0.67 mN/m; mass density (343.16 K): 918.23 ± 0.92 kg/m3; mass density (363.16 K): 898.09 ± 0.9 kg/m3; surface tension liquid-gas (373.16 K): 22.56 ± 0.59 mN/m; mass density (373.16 K): 887.7 ± 0.89 kg/m3; surface tension liquid-gas (383.17 K): 21.58 ± 0.56 mN/m; mass density (383.17 K): 877.05 ± 0.88 kg/m3; surface tension liquid-gas (393.17 K): 20.51 ± 0.54 mN/m; mass density (393.17 K): 866.15 ± 0.87 kg/m3
